The results in this text go back to patent US8227478B2, “JNK modulators” (Roche Palo Alto LLC, priority 2008, dated 2012).

For one data set, the system named is phospho-c-Jun. In words: Phospho-c-Jun translocation assay in TNFα-activated SW1353 cells. As to conditions: Homo sapiens, TNFα 1 ng/ml for 20 min, 30 min compound pre-incubation. The class given is cell-based. The text has this:
Inflammation is regulated in part by the action of c-Jun on other genes in the inflammatory pathway. Thus, inhibition of phosphorylated c-Jun translocation to the nucleus provides an indication of the anti-inflammatory activity of a compound. SW1353 cells were purchased from the American Tissue Culture Collection and maintained in growth media containing DMEM medium (Invitrogen) with 10% fetal bovine serum (Invitrogen), ascorbic acid (Sigma), and penicillin/streptomycin/[…] (Invitrogen) under culture conditions (at 37° C. with 5% CO2). Cells were plated at a density of 8,000 cells/well in 100 μl growth medium 24 h prior to the compound treatment. Immediately before the compound treatment, growth media was replaced with 90 μl of fresh media. Compound stock at 10 mM was first diluted in compound vehicle (DMSO) to 3 mM, then diluted in serum-free medium and added to each well as a 10× concentrated solution in a volume of 10 μl, mixed, and pre-incubated with cells for 30 min at 37° C. in 5% CO2. Compound vehicle (DMSO) was maintained at a final concentration of 1% for all samples. After 30 min incubation, the cells were activated with TNFα (1 ng/ml, Roche Biochem) for 20 min. Cells were then fixed, permeabilized, and stained with anti-phospho-c-Jun antibody (Santa Cruz), followed by Alexa Fluor 488 labeled secondary antibody and Hoechet 33342 dye (Invitrogen) per manufacturer's instructions. The signals of phospho-c-Jun were measured for 400 cells per well by the ArrayScan HCS system (Cellomic). The IC50 values were calculated as the concentration of the compound at which the phospho-c-Jun activity was inhibited to 50% of the control value using the 4-parameter fitting function in the ActivityBase program (IDBS).

For the next data set, the target named is Human JNK1α1 (Homo sapiens, UniProt P45983). In words: JNK assay in vitro, phosphorylation of GST-ATF2 (19-96) with [γ-33P] ATP. As to conditions: Human JNK1α1, 2 nM enzyme, 1 μM ATF2, 6 μM ATP (Km); read-out: JNK1 - IC50. The class given is biochemical. How it is done: (§1) JNK activity was measured by phosphorylation of GST-ATF2 (19-96) with [γ-^33P] ATP. The enzyme reaction was conducted at Km concentrations of ATP and the substrate at final volume of 40 μl in buffer containing 25 mM HEPES, pH 7.5, 2 mM dithiothreitol, 150 mM NaCl, 20 mM MgCl2, 0.001% Tween® 20, 0.1% BSA and 10% DMSO. Human JNK2α2 assay contains 1 nM enzyme, 1 μM ATF2, 8 μM ATP with 1 uCi [γ-^33P] ATP. Human JNK1α1 assay contains 2 nM enzyme, 1 μM ATF2, 6 μM ATP with 1 μCi [γ-^33P] ATP. Human JNK3 (Upstate Biotech #14-501M) assay contains 2 nM enzyme, 1 μM ATF2, 4 μM ATP with 1 μCi [γ-^33P] ATP. The enzyme assay was carried out in the presence or absence of several compound concentrations. JNK and compound were pre-incubated for 10 min., followed by initiation of the enzymatic reaction by adding ATP and the substrate. The reaction mixture was incubated at 30° C. for 30 min. At the end of incubation, the reaction was terminated by transferring 25 μl of the reaction mixture to 150 μl of 10% glutathione Sepharose® slurry (Amersham #27-4574-01) containing 135 mM EDTA. The reaction product was captured on the affinity resin, and washed on a filtration plate (Millipore, MABVNOB50) with phosphate buffered saline for six times to remove free radionucleotide. The incorporation of ^33P into ATF2 was quantified on a microplate scintillation counter (Packard Topcount). Compound inhibition potency on JNK was measured by IC50 value generated from ten concentration inhibition curves fitted into the 3-parameter model: % inhibition=Maximum/(1+(IC50/[Inhibitor])^slope). Data were analyzed on Microsoft Excel for parameter estimation.

In a further data set the target is Human JNK2α2 (Homo sapiens, UniProt P45984). Described as above. The class given is biochemical. As to conditions: Human JNK2α2, 1 nM enzyme, 1 μM ATF2, 8 μM ATP (Km); read-out: JNK2 - IC50. How it is done:
as §1

Chain of Human JNK2α2 (P45984 whole entry): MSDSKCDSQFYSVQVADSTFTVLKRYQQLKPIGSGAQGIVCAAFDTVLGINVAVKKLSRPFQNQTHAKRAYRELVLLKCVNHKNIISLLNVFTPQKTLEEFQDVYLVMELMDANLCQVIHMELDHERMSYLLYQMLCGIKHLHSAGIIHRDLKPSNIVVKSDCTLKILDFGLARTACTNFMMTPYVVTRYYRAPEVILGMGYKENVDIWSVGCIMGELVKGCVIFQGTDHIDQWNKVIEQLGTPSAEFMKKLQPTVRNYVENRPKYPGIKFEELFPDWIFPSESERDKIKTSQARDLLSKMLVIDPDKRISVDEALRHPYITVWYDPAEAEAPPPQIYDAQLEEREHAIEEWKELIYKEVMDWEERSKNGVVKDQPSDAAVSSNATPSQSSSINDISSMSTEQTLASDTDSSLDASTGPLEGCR
Chain of Human JNK1α1 (P45983 1-384 isoform P45983-2): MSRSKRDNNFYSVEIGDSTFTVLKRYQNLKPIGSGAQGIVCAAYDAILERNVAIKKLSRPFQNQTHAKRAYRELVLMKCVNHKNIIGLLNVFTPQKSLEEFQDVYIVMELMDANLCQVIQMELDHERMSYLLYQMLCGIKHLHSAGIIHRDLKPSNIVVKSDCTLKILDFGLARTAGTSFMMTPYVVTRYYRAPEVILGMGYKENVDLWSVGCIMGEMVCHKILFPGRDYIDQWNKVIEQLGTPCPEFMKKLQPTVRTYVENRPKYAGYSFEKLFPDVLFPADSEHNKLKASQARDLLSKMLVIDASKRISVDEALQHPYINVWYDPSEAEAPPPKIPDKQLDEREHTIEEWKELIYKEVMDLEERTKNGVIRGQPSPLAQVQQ

Turning to `O=C([C@H]1CC[C@H](Nc2nccc(-n3ccc4c(-c5ccncc5)cccc43)n2)CC1)N1CCC(O)CC1` [Compound 16, (4-Hydroxy-piperidin-1-yl)-{4-[4-(4-pyridin-4-yl-indol-1-yl)-pyrimidin-2-ylamino]-cyclohexyl}-methanone], the melting point (in general, the temperature, or range, at which the solid turns liquid) was in the range of 258 to 259 °C. For the same compound, the midpoint of inhibition in the data set on phospho-c-Jun, the IC50, lay at 2520 nM. Also, the IC50 (as a rule, the point on the concentration scale where inhibition reaches its midpoint) at Human JNK1α1 stood at 44 nM. For the same compound, the IC50 on Human JNK2α2 was 175 nM.
